We go through five compounds from ChEMBL document CHEMBL1127269, “Synthesis and DNA binding properties of a series of N to C linked and imidazole containing analogues of distamycin” (Bioorg Med Chem Lett, 1994).

Holding throughout (type): nucleic-acid assay
In test [1] the test system is Nucleic Acid. Description: Tested for binding association constant against T4 coliphage DNA using ethidium bromide assay.
The subject of test [2] is Nucleic Acid. Description: Tested for binding association constant against calf thymus using ethidium bromide assay. As to conditions: Bos taurus.
Test [3] concerns Nucleic Acid. Kind of test: Tested for binding association constant against Poly (dG-dC) using ethidium bromide assay.
Test [4] has as its system Nucleic Acid. Kind of test: Tested for binding association constant against Poly (dA.dT) using ethidium bromide assay.
Test [5] has as its system Nucleic Acid. Kind of test: Tested for binding association constant against calf thymus DNA using ethidium bromide assay. As to conditions: Bos taurus.

With `CN(C)CCNC(=O)c1nc(NC(=O)c2nc(NC(=O)CCNC(=O)c3nc(NC=O)cn3C)cn2C)cn1C`, the K app in the test with Nucleic Acid [1] was determined as 1.9e+06 M⁻¹; with Nucleic Acid [2] it was 1.6e+06 M⁻¹; with Nucleic Acid [3] it was 5.2e+06 M⁻¹; in the test on Nucleic Acid [4] it was 250000 M⁻¹.

`Cn1cc(NC(=O)c2cc(NC(=O)c3cc(NC=O)cn3C)cn2C)cc1C(=O)NCCC(=N)N`: the K app in the test with Nucleic Acid [1] is 650000 M⁻¹; with Nucleic Acid [5], 770000 M⁻¹; with Nucleic Acid [3] it was 200000 M⁻¹; with Nucleic Acid [4] it was 3.48e+07 M⁻¹.

Consider `CN(C)CCNC(=O)c1nc(NC(=O)c2nc(NC(=O)CCCNC(=O)c3nc(NC=O)cn3C)cn2C)cn1C`, for which the K app in the test with Nucleic Acid [1] was determined as 140000 M⁻¹; with Nucleic Acid [2] it was 48000 M⁻¹; in the test with Nucleic Acid [3] it was 92000 M⁻¹; in the test with Nucleic Acid [4] it was 50000 M⁻¹.

On to `CN(C)CCNC(=O)c1nc(NC(=O)CCCNC(=O)c2nc(NC=O)cn2C)cn1C`, for which the K app with Nucleic Acid [1] came out at 33000 M⁻¹; in the test on Nucleic Acid [2], 10000 M⁻¹; in the test with Nucleic Acid [3], 21000 M⁻¹; with Nucleic Acid [4], 10000 M⁻¹.

Take `CN(C)CCNC(=O)c1nc(NC(=O)CCNC(=O)c2nc(NC=O)cn2C)cn1C`: the K app was 140000 M⁻¹ in the test with Nucleic Acid [1], 150000 M⁻¹ in the test with Nucleic Acid [2], 580000 M⁻¹ with Nucleic Acid [3] and 12000 M⁻¹ in the test on Nucleic Acid [4].
